In patent publication US11702409B2, “Pyrazolyl derivatives useful as anti-cancer agents” (NOVARTIS AG, priority 2019, dated 2023) one finds IC50 and kinact/KI data, which are given here for 13 molecules.

The target in one experiment is KRasG12C (M1-K169, biotinylated on the N-terminus) (Homo sapiens (Human), UniProt P01116, G12C). In words: Covalent competition assay (scintillation proximity assay, competition with radiolabeled covalent probe Compound B). The class given is binding. The following applies: covalent competition SPA assay, KRASG12C; read-out: IC50, titration of the non-labelled version of the probe. The procedure, abridged:
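Biotinylated KRasG12C (M1-K169):GDP incubated 2 h with agitation with serially diluted compounds premixed with a fixed concentration of radiolabeled covalent probe; scintillation proximity read-out of competition for covalent modification. Buffer 20 mM Tris-HCl pH 7.5, 150 mM NaCl, 0.1 mM MgCl2, 0.01% Tween-20. IC50 from 4-parameter fit.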
(In general: Scintillation proximity formats need no separation of bound from free tracer.)
For `C=CC(=O)Nc1ccc(-n2c(C)c(-c3c(C)ccc4[nH]ncc34)c3cccnc32)c(F)c1` [Compound A, N-(3-fluoro-4-(2-methyl-3-(5-methyl-1H-indazol-4-yl)-1H-pyrrolo[2,3-b]pyridin-1-yl)phenyl)acrylamide, reference compound], the IC50 stood at 500 nM.

The experiment is the same for the next values; noted with them: in vitro KRASG12C activity; 10 nM KRasG12C:GDP, 25 nM radio-ligand and 475 nM unlabelled ligand, incubated 2 hours; read-out: Covalent Competition Assay IC50.
With `C=CC(=O)N1CC2(CC(n3nc(-c4cccc(=O)n4C)c(-c4c(Cl)ccc5[nH]ncc45)c3C)C2)C1` (single isomer, unassigned) [Example 91a], the IC50 was 5300 nM.

Take `C=CC(=O)N1CC2(CC(n3nc(-c4cccc(=O)n4C)c(-c4c(Cl)ccc5[nH]ncc45)c3C)C2)C1` (single isomer, unassigned) [Example 91b]: the IC50 turned out to be 25300 nM.

On to `C=CC(=O)N1CC2(CC(n3nc(-c4cc(C)nn4CCN(C)C)c(-c4c(Cl)c(C)cc5[nH]ncc45)c3C)C2)C1` (single isomer, unassigned) [Example 92a], for which the IC50 is 1400 nM.

In the case of `C=CC(=O)N1CC2(CC(n3nc(-c4cc(C)nn4CCN(C)C)c(-c4c(Cl)c(C)cc5[nH]ncc45)c3C)C2)C1` (single isomer, unassigned) [Example 92b], the IC50 is 43000 nM.

For the molecule `C=CC(=O)N1CC2(CC(n3nc(-c4ccc5cn[nH]c5c4)c(-c4c(Cl)c(C)cc5[nH]ncc45)c3C)C2)C1` [Example 14], the IC50 was 310 nM.

Take `C=CC(=O)N1CC2(CC(n3nc(-c4ccc(CN5CCCC5=O)cc4)c(-c4c(Cl)c(C)cc5[nH]ncc45)c3C)C2)C1` [Example 48, 1-(4-(1-(2-acryloyl-2-azaspiro[3.3]heptan-6-yl)-4-(5-chloro-6-methyl-1H-indazol-4-yl)-5-methyl-1H-pyrazol-3-yl)benzyl)pyrrolidin-2-one]: the IC50 worked out at 49 nM.

Turning to `C=CC(=O)N1CC2(CC(n3nc(-c4ccc(-n5ccc(N)n5)nc4)c(-c4c(Cl)c(C)cc5[nH]ncc45)c3C)C2)C1` [Example 53, 1-(6-(3-(6-(3-amino-1H-pyrazol-1-yl)pyridin-3-yl)-4-(5-chloro-6-methyl-1H-indazol-4-yl)-5-methyl-1H-pyrazol-1-yl)-2-azaspiro[3.3]heptan-2-yl)prop-2-en-1-one], the IC50 worked out at 320 nM.

On to `C=CC(=O)N1CC2(CC(n3nc(-c4cc5cn(C)nc5cn4)c(-c4c(Cl)c(C)cc5[nH]ncc45)c3C)C2)C1` [Example 77], for which the IC50 is 195 nM.

For `C=CC(=O)N1CC2(CC(n3nc(-c4ccc(OC)nc4)c(-c4c(Cl)c(C)cc5[nH]ncc45)c3C)C2)C1` [Example 78a, 1-(6-(4-(5-chloro-6-methyl-1H-indazol-4-yl)-3-(6-methoxypyridin-3-yl)-5-methyl-1H-pyrazol-1-yl)-2-azaspiro[3.3]heptan-2-yl)prop-2-en-1-one], the IC50 is 216 nM.

Turning to `C=CC(=O)N1CC2(CC(n3nc(-c4ccc(N)nc4)c(-c4c(Cl)c(C)cc5[nH]ncc45)c3C)C2)C1` [Example 79a, 1-(6-(3-(6-aminopyridin-3-yl)-4-(5-chloro-6-methyl-1H-indazol-4-yl)-5-methyl-1H-pyrazol-1-yl)-2-azaspiro[3.3]heptan-2-yl)prop-2-en-1-one], the IC50 was 92 nM.

Consider `C=CC(=O)N1CC2(CC(n3nc(-c4cccnc4)c(-c4c(Cl)c(C)cc5[nH]ncc45)c3CC#N)C2)C1` [Example 88], for which the IC50 was found to be 13500 nM.

Regarding `C=CC(=O)N1CC2(CC(n3nc(-c4ccc5c(cnn5C)c4)c(-c4cc(O)ccc4Cl)c3C)C2)C1` [Example 94, 1-(6-(4-(2-chloro-5-hydroxyphenyl)-5-methyl-3-(1-methyl-1H-indazol-5-yl)-1H-pyrazol-1-yl)-2-azaspiro[3.3]heptan-2-yl)prop-2-en-1-one], the IC50 came to 2300 nM.

Another experiment has as its target KRasG12C (Homo sapiens (Human), UniProt P01116, G12C). In words: MS-based assay (% modification for a range of compound concentrations and time points). It is filed as biochemical. The following applies: internally determined, non-labeled ligand; read-out: (kinact/KI)probe, second order rate constant for modification of KRasG12C.
In the case of `C=CC(=O)Nc1ccc(-n2c(C)c(-c3c(C)ccc4[nH]ncc34)c3cccnc32)c(F)c1` [Compound A, N-(3-fluoro-4-(2-methyl-3-(5-methyl-1H-indazol-4-yl)-1H-pyrrolo[2,3-b]pyridin-1-yl)phenyl)acrylamide, reference compound], the kinact/KI is about 5000 M⁻¹ s⁻¹.
